Literature values, collected in patent US20160286792A1, “METHOD AND SYSTEM FOR PEST CONTROL” (priority 2013, published 2016).
Where two headings read alike, the source gives them in different places.

Columns and labels:
[1] = aqueous, at 25 degrees

**Q.** For Cc1c(COC(=O)[C@@H]2[C@H](/C=C(\Cl)C(F)(F)F)C2(C)C)cccc1-c1ccccc1 (racemic) [Bifenthrin], which length of protection (termites; applied at 0.05% concentration) is on record?
**A.** 10 years

**Q.** What about the length of protection (termites; applied at 0.1% concentration) of the same compound?
**A.** at least 10 years

**Q.** What about the length of protection (termites; applied at 0.25% concentration) of the same compound?
**A.** 3 years

**Q.** Which results are given for O=[N+]([O-])NC1=NCCN1Cc1ccc(Cl)nc1 [Imidacloprid]?
**A.** length of protection (termites; applied at 0.25% concentration): up to 3 years; toxicity to humans (humans): low to medium toxicity

**Q.** For CCOP(=S)(OCC)Oc1nc(Cl)c(Cl)cc1Cl [chlorpyrifos, Chlorpyrifos], which length of protection (termites; concentration varies depending on the brand) is on record?
**A.** up to 5 years

**Q.** For calcium sulphate dihydrate [gypsum], which “concentration of saturated solution” value [1] is on record?
**A.** 2000 to 2500 µg/mL
